Assay results reported in paper PMC4450297, “Screening Active Compounds from Garcinia Species Native to China Reveals Novel Compounds Targeting the STAT/JAK Signaling Pathway” (BioMed Research International, 2015).

Tests used:
Assay in all cases: Cell panel screen (CellTiter-Glo)
Type in all cases: cell-based, human
SW13 = SW13 (Adrenal gland), 20 micromolar, 72 hrs
Procedure, shortened: (§1)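 Tested once at 20 μM (final) over 72 h in cells cultured with 10% FBS. Luciferase/ATP luminescence read-out, background-corrected and normalised to vehicle controls.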

A498 = A498 (listed under Lung), 20 micromolar, 72 hrs
Procedure, shortened: as §1

A704 = A704 (Kidney), 20 micromolar, 72 hrs
Procedure, shortened: as §1

HCC1937 = HCC1937 (Breast), 20 micromolar, 72 hrs
Procedure, shortened: as §1

ChaGo-K-1 = ChaGo-K-1 (Lung), 20 micromolar, 72 hrs
Procedure, shortened: as §1

C3A = C3A (Liver), 20 micromolar, 72 hrs
Procedure, shortened: as §1

MSTO-211-H = MSTO-211-H (Lung), 20 micromolar, 72 hrs
Procedure, shortened: as §1

CW-2 = CW-2 (Colon), 20 micromolar, 72 hrs
Procedure, shortened: as §1

HGC-27 = HGC-27 (Stomach), 20 micromolar, 72 hrs
Procedure, shortened: as §1

BT-549 = BT-549 (Breast), 20 micromolar, 72 hrs
Procedure, shortened: as §1

HCC1599 = HCC1599 (Breast), 20 micromolar, 72 hrs
Procedure, shortened: as §1

Colo 205 = conditions: Colo 205, 20 micromolar, 72 hrs
Procedure, shortened: as §1

T98G = T98G (Brain), 20 micromolar, 72 hrs
Procedure, shortened: as §1

HEC-1-A = HEC-1-A (Uterus), 20 micromolar, 72 hrs
Procedure, shortened: as §1

NCI-H1770 = NCI-H1770 (Lung), 20 micromolar, 72 hrs
Procedure, shortened: as §1

NCI-H28 = NCI-H28 (Lung), 20 micromolar, 72 hrs
Procedure, shortened: as §1

TCCSUP = TCCSUP (Urinary bladder), 20 micromolar, 72 hrs
Procedure, shortened: as §1

HCC1395 = HCC1395 (Breast), 20 micromolar, 72 hrs
Procedure, shortened: as §1

ZR-75-30 = ZR-75-30 (Breast), 20 micromolar, 72 hrs
Procedure, shortened: as §1

HT-1197 = HT-1197 (Urinary bladder), 20 micromolar, 72 hrs
Procedure, shortened: as §1

HPAF-II = HPAF-II (Pancreas), 20 micromolar, 72 hrs
Procedure, shortened: as §1

NCI-H2405 = NCI-H2405 (Lung), 20 micromolar, 72 hrs
Procedure, shortened: as §1

RL95 = RL95 (Uterus), 20 micromolar, 72 hrs
Procedure, shortened: as §1

C8166 = C8166 (Leukemia), 20 micromolar, 72 hrs
Procedure, shortened: as §1

NCI-H2347 = NCI-H2347 (Lung), 20 micromolar, 72 hrs
Procedure, shortened: as §1

NCI-H524 = NCI-H524 (Lung), 20 micromolar, 72 hrs
Procedure, shortened: as §1

Panc 03.27 = Panc 03.27 (Pancreas), 20 micromolar, 72 hrs
Procedure, shortened: as §1

NCI-H1694 = NCI-H1694 (Lung), 20 micromolar, 72 hrs
Procedure, shortened: as §1

Bel-7402 = Bel-7402 (Liver), 20 micromolar, 72 hrs
Procedure, shortened: as §1

HCC1569 = HCC1569 (Breast), 20 micromolar, 72 hrs
Procedure, shortened: as §1

BT-474 = BT-474 (Breast), 20 micromolar, 72 hrs
Procedure, shortened: as §1

M059J = M059J (Brain), 20 micromolar, 72 hrs
Procedure, shortened: as §1

J82 = J82 (Urinary bladder), 20 micromolar, 72 hrs
Procedure, shortened: as §1

CCF-STTG1 = CCF-STTG1 (Brain), 20 micromolar, 72 hrs
Procedure, shortened: as §1

NCI-H1623 = NCI-H1623 (Lung), 20 micromolar, 72 hrs
Procedure, shortened: as §1

T47D = T47D (Breast), 20 micromolar, 72 hrs
Procedure, shortened: as §1

Row | Compound | Percent Inhibition (SW13) [%] | Percent Inhibition (A498) [%] | Percent Inhibition (A704) [%] | Percent Inhibition (HCC1937) [%] | Percent Inhibition (ChaGo-K-1) [%] | Percent Inhibition (C3A) [%] | Percent Inhibition (MSTO-211-H) [%] | Percent Inhibition (CW-2) [%] | Percent Inhibition (HGC-27) [%] | Percent Inhibition (BT-549) [%] | Percent Inhibition (HCC1599) [%] | Percent Inhibition (Colo 205) [%] | Percent Inhibition (T98G) [%] | Percent Inhibition (HEC-1-A) [%] | Percent Inhibition (NCI-H1770) [%] | Percent Inhibition (NCI-H28) [%] | Percent Inhibition (TCCSUP) [%] | Percent Inhibition (HCC1395) [%] | Percent Inhibition (ZR-75-30) [%] | Percent Inhibition (HT-1197) [%] | other results
1 | CC(C)=CCc1c(O)cc(O)c2c1O[C@]13C(=C[C@@H]4C[C@H]1C(C)(C)O[C@@]3(CC=C(C)C)C4=O)C2=O [GB35] | 100 | 93 | 99 | 100 | 99 | 98 | 99 | 100 | 100 | 100 | 100 | 100 | 100 | 100 | 100 | 93 | 100 | 100 | 100 | 96 | Percent Inhibition (HPAF-II): 100%; Percent Inhibition (NCI-H2405): 99%; Percent Inhibition (RL95): 100%; Percent Inhibition (C8166): 99%; Percent Inhibition (NCI-H2347): 97%; Percent Inhibition (NCI-H524): 100%; Percent Inhibition (Panc 03.27): 99%; Percent Inhibition (NCI-H1694): 100%; Percent Inhibition (Bel-7402): 99%; Percent Inhibition (HCC1569): 100%; Percent Inhibition (BT-474): 99%; Percent Inhibition (M059J): 100%; Percent Inhibition (J82): 99%; Percent Inhibition (CCF-STTG1): 100%; Percent Inhibition (NCI-H1623): 100%; Percent Inhibition (T47D): 100%
2 | O=C1c2c(O)cc(O)cc2OC(c2ccc(O)c(O)c2)C1O (stereo not drawn) [gl-34] | -13 | 2 | -13 | 8 | -3 | -13 | -9 | 7 | -8 | -9 | 42 | 1 | 1 | -5 | 0 | -11 | 4 | 16 | 14 | 10 | Percent Inhibition (HPAF-II): 6%; Percent Inhibition (NCI-H2405): -5%; Percent Inhibition (RL95): 3%; Percent Inhibition (C8166): 7%; Percent Inhibition (NCI-H2347): 2%; Percent Inhibition (NCI-H524): -31%; Percent Inhibition (Panc 03.27): 9%; Percent Inhibition (NCI-H1694): 10%; Percent Inhibition (Bel-7402): -9%; Percent Inhibition (HCC1569): 3%; Percent Inhibition (BT-474): -15%; Percent Inhibition (M059J): 9%; Percent Inhibition (J82): 3%; Percent Inhibition (CCF-STTG1): 4%; Percent Inhibition (NCI-H1623): -7%; Percent Inhibition (T47D): -6%
3 | COC(=O)C1OC(Oc2cc(O)c3c(c2)OC(c2ccc(O)c(O)c2)CC3=O)C(O)C(O)C1O (stereo not drawn) [gly-5] | -6 | -12 | -7 | 1 | -10 | -1 | -6 | 1 | -2 | -12 | -41 | -4 | 0 | -16 | -6 | -17 | -11 | 11 | 7 | 0 | Percent Inhibition (HPAF-II): -7%; Percent Inhibition (NCI-H2405): 5%; Percent Inhibition (RL95): 6%; Percent Inhibition (C8166): -5%; Percent Inhibition (NCI-H2347): 1%; Percent Inhibition (NCI-H524): -5%; Percent Inhibition (Panc 03.27): 3%; Percent Inhibition (NCI-H1694): -2%; Percent Inhibition (Bel-7402): -8%; Percent Inhibition (HCC1569): -7%; Percent Inhibition (BT-474): -15%; Percent Inhibition (M059J): 6%; Percent Inhibition (J82): -8%; Percent Inhibition (CCF-STTG1): 8%; Percent Inhibition (NCI-H1623): 7%; Percent Inhibition (T47D): 2%
4 | CC(C)=CCc1c(O)c(O)cc2oc3cc(O)cc(O)c3c(=O)c12 [bn-10, 1,3,6,7-tetrahydroxy-8-(3-methylbut-2-enyl)xanthone] | 11 | 25 | -11 | 32 | 18 | 20 | 4 | 25 | 30 | -4 | 77 | 19 | 21 | 22 | 0 | 12 | 33 | 8 | 77 | 8 | Percent Inhibition (HPAF-II): -2%; Percent Inhibition (NCI-H2405): -8%; Percent Inhibition (RL95): 15%; Percent Inhibition (C8166): 23%; Percent Inhibition (NCI-H2347): 9%; Percent Inhibition (NCI-H524): -20%; Percent Inhibition (Panc 03.27): -1%; Percent Inhibition (NCI-H1694): 28%; Percent Inhibition (Bel-7402): 7%; Percent Inhibition (HCC1569): 16%; Percent Inhibition (BT-474): -3%; Percent Inhibition (M059J): 9%; Percent Inhibition (J82): 29%; Percent Inhibition (CCF-STTG1): 8%; Percent Inhibition (NCI-H1623): -10%; Percent Inhibition (T47D): 4%
5 | COC(=O)C1OC(Oc2cc(O)c3c(=O)cc(-c4ccc(O)cc4)oc3c2)C(O)C(O)C1O (stereo not drawn) [WZ-6] | 1 | 13 | -9 | 3 | -16 | -1 | 6 | 12 | -8 | -16 | 12 | 4 | 4 | 1 | -1 | 6 | 8 | 21 | -2 | 16 | Percent Inhibition (HPAF-II): -14%; Percent Inhibition (NCI-H2405): -12%; Percent Inhibition (RL95): -5%; Percent Inhibition (C8166): -15%; Percent Inhibition (NCI-H2347): -3%; Percent Inhibition (NCI-H524): -11%; Percent Inhibition (Panc 03.27): -4%; Percent Inhibition (NCI-H1694): -9%; Percent Inhibition (Bel-7402): 1%; Percent Inhibition (HCC1569): -18%; Percent Inhibition (BT-474): -12%; Percent Inhibition (M059J): 2%; Percent Inhibition (J82): -5%; Percent Inhibition (CCF-STTG1): -3%; Percent Inhibition (NCI-H1623): -8%; Percent Inhibition (T47D): 4%
